Measured values: patent US5610159A, “N-oxides of morpholine derivatives and their use as therapeutic agents” (Merck Sharp & Dohme Limited, priority 1995, dated 1997)

Assay: stability of crystals on storage
Type: physicochemical
Method: Dimethylamine (approximately 10 ml) was condensed at -80° C. in a pressure tube and to this was added a solution of N-(4-azidobut-2-ynyl)-2-(R)-(1-(R)-(3,5-bis(trifluoromethyl)phenyl)ethoxy)-3-(S)-(4-fluorophenyl)morpholine (3.2 g) in dioxan (15 ml). The tube was sealed and the solution was heated at 90° C. for 16 h. The solution was evaporated to dryness and the residue chromatographed on silica gel (eluting with 5% methanol in dichloromethane containing 0.25% ammonia (SG. 0.88)) and the fractions containing the desired product were evaporated in vacuo to give the title compound. To a solution of this residue in diethyl ether was added 1M-HCl in methanol. The solution was evaporated to dryness and redissolved in diethyl ether to give crystals of the title compound hydrochloride salt m.p. 194°-198° C., [α]^22D+65.0° (c=0.5, H2 O).

Measured: stability of crystals

C[C@@H](O[C@H]1OCCN(Cc2nn[nH]c2CN(C)C)[C@H]1c1ccc(F)cc1)c1cc(C(F)(F)F)cc(C(F)(F)F)c1 [Description 9]
stable for at least five days: at 40° C. | at 40° C./75% relative humidity | at 80° C. | at 2000LUX
